Reference: patent US5571825A, “Method of selectively inhibiting prostaglandin G/H synthase-2” (Warner-Lambert Company, priority 1995, dated 1996)
Where “and” joins values, the source holds several entries; their conditions need not be identical. Equal entries are not always repeated.

target: T1, prostaglandin G/H synthase-2 (Ovis aries, UniProt P79208); assay: Inhibition of prostaglandin G/H synthase-2 (conversion of [14C]arachidonic acid to products); assay type: biochemical; settings: 10 μM; enzyme purified from sheep placenta; 15 min preincubation, pH 7.4, room temperature
T1 construct: purified from sheep placenta; from tissue; host or cells: sheep placenta
Protocol: (§1) The compounds of the present invention were evaluated as selective inhibitors of prostaglandin G/H synthase-2 by determining the effect of the compounds on the conversion of [^14 C]arachidonic acid to products by prostaglandin G/H synthase-2 purified from sheep placenta. This enzyme shares immunoreactivity and sequence homology with human prostaglandin G/H synthase-2. The effects of the compounds on prostaglandin G/H synthase-1 purified from ram seminal vesicles is used for the evaluation of inhibitory selectivity.
(§2) Each compound was preincubated for 15 minutes at room temperature in 50 mM sodium phosphate buffer at pH 7.4 containing 3.33 mM reduced glutathione, 2.67 mM epinephrine and 6.6% dimethylsulfoxide with sufficient enzyme to cause approximately 30% conversion of substrate to products after 15 minutes incubation in the absence of inhibitory compounds. Reactions with 24 μM arachidonic acid are initiated by the addition of a one third volume of 50 mM sodium phosphate buffer, pH 7.4, containing 3.33 mM reduced glutathione, 2.67 mM epinephrineβ and [^14 C] arachidonic acid.
(§3) Reactions were terminated after 15 minutes incubation at room temperature by the addition of 1.875 volumes of methanol:acetic acid (100:0.1) containing 0.5 mg/ml triphenylphosphine. The reaction products were separated from the unconverted substrate by high performance liquid chromatography and quantified by on-line radiometric detection. Compound effects were computed as percent inhibition of blank-adjusted mean product formation in uninhibited incubations.

T1 sequence (P79208 17-603): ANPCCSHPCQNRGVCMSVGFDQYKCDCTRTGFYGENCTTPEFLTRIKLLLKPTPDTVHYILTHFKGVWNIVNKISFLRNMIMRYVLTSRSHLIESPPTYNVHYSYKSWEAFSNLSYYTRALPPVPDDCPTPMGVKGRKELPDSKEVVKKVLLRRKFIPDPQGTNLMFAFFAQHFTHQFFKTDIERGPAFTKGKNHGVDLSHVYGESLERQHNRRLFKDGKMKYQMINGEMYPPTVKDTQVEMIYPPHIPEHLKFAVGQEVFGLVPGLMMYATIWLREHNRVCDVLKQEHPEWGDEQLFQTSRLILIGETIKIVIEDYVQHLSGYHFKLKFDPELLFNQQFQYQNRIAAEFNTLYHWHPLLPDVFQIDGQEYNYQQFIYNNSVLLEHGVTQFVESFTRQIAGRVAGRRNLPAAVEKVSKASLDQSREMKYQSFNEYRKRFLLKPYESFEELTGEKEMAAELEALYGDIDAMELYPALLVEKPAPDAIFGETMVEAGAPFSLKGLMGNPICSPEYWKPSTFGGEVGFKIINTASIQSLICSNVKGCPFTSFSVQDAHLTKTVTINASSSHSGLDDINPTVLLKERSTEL

SMILES | % Inhibition of PGHS-2 at 10 μM [%]
COC(=O)CSC1c2ccccc2Oc2ccccc21 [Example 16, Methyl (xanthen-9-yl-thio)acetate] | 50
COC(=O)CSC(c1ccc(OC)cc1)c1ccc(OC)cc1 [Example 2, Methyl [[bis-(4-methoxyphenyl)methyl]thio]acetate] | 34
COC(=O)CSC(c1ccc(N(C)C)cc1)c1ccc(N(C)C)cc1 [Example 4, Methyl [[bis-(4-dimethylaminophenyl)methyl]thio]acetate] | 92
COC(=O)CSC(c1ccc(OC)cc1)(c1ccc(OC)cc1)c1ccc(OC)cc1 [Example 12, Methyl [[(tris-4-methoxyphenyl)methyl]thio]acetate] | 83

same assay, conditions: 100 μM; enzyme purified from sheep placenta; 15 min preincubation, pH 7.4, room temperature

SMILES | % Inhibition of PGHS-2 at 100 μM
COC(=O)CSC1c2ccccc2Oc2ccccc21 [Example 16, Methyl (xanthen-9-yl-thio)acetate] | 85%
COC(=O)CSC(c1ccc(Cl)cc1)c1ccc(Cl)cc1 [Example 3, Methyl [[bis-(4-chlorophenyl)methyl]thio]acetate] | 46%
COC(=O)CSC(c1ccc(F)cc1)c1ccc(F)cc1 [Example 5, Methyl [[bis-(4-fluorophenyl)methyl]thio]acetate] | 40%
COC(=O)CSC(c1ccc(OC)cc1)c1ccc(OC)cc1 [Example 2, Methyl [[bis-(4-methoxyphenyl)methyl]thio]acetate] | 74%
COC(=O)CSC(c1ccc(N(C)C)cc1)c1ccc(N(C)C)cc1 [Example 4, Methyl [[bis-(4-dimethylaminophenyl)methyl]thio]acetate] | 99% and 92%
COC(=O)CSC(c1ccc(OC)cc1)(c1ccc(OC)cc1)c1ccc(OC)cc1 [Example 12, Methyl [[(tris-4-methoxyphenyl)methyl]thio]acetate] | 86%

same assay, conditions: pH 7.4, 10 μM; enzyme purified from sheep placenta; 15 min preincubation, pH 7.4, room temperature; read-out: % Inhibition of PGHS-2 at 10 μM

SMILES | inhibition at 10 µM [%]
COC(=O)CSC1c2ccccc2Oc2ccccc21 [Example 16, Methyl (xanthen-9-yl-thio)acetate] | 41
COC(=O)CSC(c1ccccc1)(c1ccc(OC)cc1)c1ccc(OC)cc1 [Example 13, Methyl [[(bis-4-methoxyphenyl)phenylmethyl]thio]acetate] | 41
COC(=O)CSC1(c2ccccc2)c2ccccc2-c2ccccc21 [Example 14, Methyl (9-phenylfluoren-9-yl-thio)acetate] | 14
COC(=O)CSC(c1ccc(N(C)C)cc1)c1ccc(N(C)C)cc1 [Example 4, Methyl [[bis-(4-dimethylaminophenyl)methyl]thio]acetate] | 86
COC(=O)CSC(c1ccc(OC)cc1)(c1ccc(OC)cc1)c1ccc(OC)cc1 [Example 12, Methyl [[(tris-4-methoxyphenyl)methyl]thio]acetate] | 79

same assay, conditions: pH 7.4, 100 μM; enzyme purified from sheep placenta; 15 min preincubation, pH 7.4, room temperature; read-out: % Inhibition of PGHS-2 at 100 μM

SMILES | inhibition at 100 µM [%]
COC(=O)CSC1c2ccccc2Oc2ccccc21 [Example 16, Methyl (xanthen-9-yl-thio)acetate] | 78
COC(=O)CSC(c1ccccc1)(c1ccc(OC)cc1)c1ccc(OC)cc1 [Example 13, Methyl [[(bis-4-methoxyphenyl)phenylmethyl]thio]acetate] | 49
COC(=O)CSC1(c2ccccc2)c2ccccc2-c2ccccc21 [Example 14, Methyl (9-phenylfluoren-9-yl-thio)acetate] | 50
COC(=O)CSC(c1ccc(N(C)C)cc1)c1ccc(N(C)C)cc1 [Example 4, Methyl [[bis-(4-dimethylaminophenyl)methyl]thio]acetate] | 96
COC(=O)CSC(c1ccc(OC)cc1)(c1ccc(OC)cc1)c1ccc(OC)cc1 [Example 12, Methyl [[(tris-4-methoxyphenyl)methyl]thio]acetate] | 80

same assay, conditions: pH 7.4, read-out: % Inhibition of PGHS-2 at 10 μM, 10 μM; enzyme purified from sheep placenta; 15 min preincubation, pH 7.4, room temperature

SMILES | inhibition at 10 µM [%]
COC(=O)CSC(c1ccc(OC)cc1)c1ccc(OC)cc1 [Example 2, Methyl [[bis-(4-methoxyphenyl)methyl]thio]acetate] | 23

same assay, conditions: pH 7.4, read-out: % Inhibition of PGHS-2 at 100 μM, 100 μM; enzyme purified from sheep placenta; 15 min preincubation, pH 7.4, room temperature

SMILES | inhibition at 100 µM [%]
COC(=O)CSC(c1ccc(Cl)cc1)c1ccc(Cl)cc1 [Example 3, Methyl [[bis-(4-chlorophenyl)methyl]thio]acetate] | 45
COC(=O)CSC(c1ccc(F)cc1)c1ccc(F)cc1 [Example 5, Methyl [[bis-(4-fluorophenyl)methyl]thio]acetate] | 52
COC(=O)CSC(c1ccc(OC)cc1)c1ccc(OC)cc1 [Example 2, Methyl [[bis-(4-methoxyphenyl)methyl]thio]acetate] | 79

target: T2, prostaglandin G/H synthase-1 (Ovis aries, UniProt P05979); assay: Inhibition of prostaglandin G/H synthase-1 (conversion of [14C]arachidonic acid to products); assay type: biochemical; settings: 10 μM; enzyme purified from ram seminal vesicles; 15 min preincubation, pH 7.4, room temperature
T2 construct: purified from ram seminal vesicles; from tissue; host or cells: ram seminal vesicles
T2 sequence (P05979 25-600): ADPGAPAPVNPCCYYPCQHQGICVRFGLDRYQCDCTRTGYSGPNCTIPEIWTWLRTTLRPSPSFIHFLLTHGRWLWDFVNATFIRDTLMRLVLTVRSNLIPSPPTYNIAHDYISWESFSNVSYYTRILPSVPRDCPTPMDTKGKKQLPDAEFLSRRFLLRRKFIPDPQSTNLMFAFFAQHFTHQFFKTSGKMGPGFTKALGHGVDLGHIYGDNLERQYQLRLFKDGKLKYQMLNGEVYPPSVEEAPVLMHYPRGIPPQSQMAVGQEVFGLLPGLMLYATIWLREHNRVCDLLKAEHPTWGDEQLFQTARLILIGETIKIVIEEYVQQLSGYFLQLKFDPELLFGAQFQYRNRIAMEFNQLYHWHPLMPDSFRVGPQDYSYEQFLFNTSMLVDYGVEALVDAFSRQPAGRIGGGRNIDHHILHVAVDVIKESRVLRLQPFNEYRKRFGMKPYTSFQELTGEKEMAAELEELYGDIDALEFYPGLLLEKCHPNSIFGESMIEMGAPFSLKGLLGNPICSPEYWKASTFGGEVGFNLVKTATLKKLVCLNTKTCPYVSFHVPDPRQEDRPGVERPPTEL
Protocol: as §1, §2, §3

SMILES | % Inhibition of PGHS-1 at 10 μM [%]
COC(=O)CSC(c1ccc(N(C)C)cc1)c1ccc(N(C)C)cc1 [Example 4, Methyl [[bis-(4-dimethylaminophenyl)methyl]thio]acetate] | 31

same assay, conditions: 100 μM; enzyme purified from ram seminal vesicles; 15 min preincubation, pH 7.4, room temperature

SMILES | % Inhibition of PGHS-1 at 100 μM [%]
COC(=O)CSC(c1ccc(OC)cc1)c1ccc(OC)cc1 [Example 2, Methyl [[bis-(4-methoxyphenyl)methyl]thio]acetate] | 13
COC(=O)CSC(c1ccc(N(C)C)cc1)c1ccc(N(C)C)cc1 [Example 4, Methyl [[bis-(4-dimethylaminophenyl)methyl]thio]acetate] | 72
COC(=O)CSC(c1ccc(OC)cc1)(c1ccc(OC)cc1)c1ccc(OC)cc1 [Example 12, Methyl [[(tris-4-methoxyphenyl)methyl]thio]acetate] | 17

same assay, conditions: pH 7.4, 10 μM; enzyme purified from ram seminal vesicles; 15 min preincubation, pH 7.4, room temperature; read-out: % Inhibition of PGHS-1 at 10 μM

SMILES | inhibition at 10 µM [%]
COC(=O)CSC1c2ccccc2Oc2ccccc21 [Example 16, Methyl (xanthen-9-yl-thio)acetate] | < 10
COC(=O)CSC(c1ccccc1)(c1ccc(OC)cc1)c1ccc(OC)cc1 [Example 13, Methyl [[(bis-4-methoxyphenyl)phenylmethyl]thio]acetate] | < 10
COC(=O)CSC1(c2ccccc2)c2ccccc2-c2ccccc21 [Example 14, Methyl (9-phenylfluoren-9-yl-thio)acetate] | < 10
COC(=O)CSC(c1ccc(N(C)C)cc1)c1ccc(N(C)C)cc1 [Example 4, Methyl [[bis-(4-dimethylaminophenyl)methyl]thio]acetate] | 42

same assay, conditions: pH 7.4, 100 μM; enzyme purified from ram seminal vesicles; 15 min preincubation, pH 7.4, room temperature; read-out: % Inhibition of PGHS-1 at 100 μM

SMILES | inhibition at 100 µM [%]
COC(=O)CSC(c1ccccc1)(c1ccc(OC)cc1)c1ccc(OC)cc1 [Example 13, Methyl [[(bis-4-methoxyphenyl)phenylmethyl]thio]acetate] | < 10
COC(=O)CSC1(c2ccccc2)c2ccccc2-c2ccccc21 [Example 14, Methyl (9-phenylfluoren-9-yl-thio)acetate] | < 10
COC(=O)CSC(c1ccc(N(C)C)cc1)c1ccc(N(C)C)cc1 [Example 4, Methyl [[bis-(4-dimethylaminophenyl)methyl]thio]acetate] | 68
COC(=O)CSC(c1ccc(OC)cc1)(c1ccc(OC)cc1)c1ccc(OC)cc1 [Example 12, Methyl [[(tris-4-methoxyphenyl)methyl]thio]acetate] | 32

same assay, conditions: pH 7.4, read-out: % Inhibition of PGHS-1 at 10 μM, 10 μM; enzyme purified from ram seminal vesicles; 15 min preincubation, pH 7.4, room temperature

SMILES | inhibition at 10 µM [%]
COC(=O)CSC(c1ccc(F)cc1)c1ccc(F)cc1 [Example 5, Methyl [[bis-(4-fluorophenyl)methyl]thio]acetate] | < 10
COC(=O)CSC(c1ccc(OC)cc1)c1ccc(OC)cc1 [Example 2, Methyl [[bis-(4-methoxyphenyl)methyl]thio]acetate] | < 10

same assay, conditions: pH 7.4, read-out: % Inhibition of PGHS-1 at 100 μM, 100 μM; enzyme purified from ram seminal vesicles; 15 min preincubation, pH 7.4, room temperature

SMILES | inhibition at 100 µM [%]
COC(=O)CSC(c1ccc(F)cc1)c1ccc(F)cc1 [Example 5, Methyl [[bis-(4-fluorophenyl)methyl]thio]acetate] | < 10
COC(=O)CSC(c1ccc(OC)cc1)c1ccc(OC)cc1 [Example 2, Methyl [[bis-(4-methoxyphenyl)methyl]thio]acetate] | < 10
